Results reported in patent US4468385A, “Poly-cation salts of 4-O-poly-hexaose-thio-alkylene sulfate derivatives and method of use” (American Cyanamid Company, priority 1983, dated 1984).
Where “and” joins values, the source holds several entries; their conditions need not be identical. Equal values may be shown once. Where a name gives a salt, the structure may show the parent alone. Each block holds one compound with its values, some of them ahead of it.

Columns and labels:
[1] = target: activated human C1 (Homo sapiens, UniProt P09871); experiment: Test Code 026 (C1 inhibitor): protection of fluid phase human C2 from activated human C1 in the presence of C4; assay type: biochemical; settings: serial twofold dilution assay; higher well number indicates higher activity
[2] = tested on: complement system; settings: literature report; cited from earlier work
[3] = tested on: hereditary angioneurotic edema; settings: literature report; cited from earlier work
[4] = tested on: total hemolytic complement activity; settings: in vitro and in vivo, judged by reduction in total hemolytic complement activity; cited from earlier work

Compound: O=S(=O)([O-])OC[C@H]1O[C@@H](SCC(O)C(O)CS)[C@H](OS(=O)(=O)[O-])[C@@H](OS(=O)(=O)[O-])[C@@H]1O[C@H]1O[C@H](COS(=O)(=O)[O-])[C@@H](OS(=O)(=O)[O-])[C@H](OS(=O)(=O)[O-])[C@H]1OS(=O)(=O)[O-].[Na+].[Na+].[Na+].[Na+].[Na+].[Na+].[Na+] (stereo partly drawn) [2,3-Dihydroxy-4-mercaptobutyl 2,3,6-tri-O-sulfo-4-O-(2,3,4,6-tetra-O-sulfo-α-D-glucopyranosyl)-1-thio-β-D-glucopyranoside heptasodium salt]
In vitro Activity Cl 026 Wells [1]: 12 Wells

In vitro Activity Cl 026 Wells [1]: 6 Wells and 9 Wells
Compound: O=S(=O)(O)OC[C@H]1O[C@H](O[C@H]2[C@H](O)[C@@H](OS(=O)(=O)O)[C@H](SCC(S)CO)O[C@@H]2COS(=O)(=O)O)[C@H](OS(=O)(=O)O)[C@@H](O)[C@@H]1O (stereo partly drawn) [3-Hydroxy-2-mercaptopropyl 4-O-α-D-glucopyranosyl-1-thio-β-D-glucopyranoside-tetrakis-(H-sulfate) tetrasodium salt]

In vitro Activity Cl 026 Wells [1]: 6 Wells
Compound: CC(=O)NC(CCS[C@@H]1O[C@H](COS(=O)(=O)O)[C@@H](O[C@H]2O[C@H](COS(=O)(=O)O)[C@@H](OS(=O)(=O)O)[C@H](OS(=O)(=O)O)[C@H]2OS(=O)(=O)O)[C@H](OS(=O)(=O)O)[C@H]1OS(=O)(=O)O)C(=O)O (stereo partly drawn) [4-[2,3,6-Tri-O-sulfo-4-O-(2,3,4,6-tetra-O-sulfo-α-D-glucopyranosyl)-β-D-glucopyranosyl]-2-acetamido-4-mercaptobutyric acid heptasodium salt]

In vitro Activity Cl 026 Wells [1]: 1 Wells
Compound: N[C@@H](CS[C@@H]1O[C@H](COS(=O)(=O)O)[C@@H](O[C@H]2O[C@H](COS(=O)(=O)O)[C@@H](OS(=O)(=O)O)[C@H](OS(=O)(=O)O)[C@H]2OS(=O)(=O)O)[C@H](OS(=O)(=O)O)[C@H]1OS(=O)(=O)O)C(=O)O [4-[2,3,6-Tri-O-sulfo-4-O-(2,3,4,6-tetra-O-sulfo-α-D-glucopyranosyl)-β-D-glucopyranosyl]-L-cysteine heptasodium salt]

Compound: Nc1ccc2cc(S(=O)(=O)[O-])cc(O)c2c1N=Nc1ccc(NC(=O)Nc2ccc(N=Nc3c(N)ccc4cc(S(=O)(=O)[O-])cc(O)c34)c(S(=O)(=O)[O-])c2)cc1S(=O)(=O)[O-].[Na+].[Na+].[Na+].[Na+] [chlorazol fast pink, 3,3'-ureylenebis[6-(2-amino-8-hydroxy-6-sulfo-1-naphthylazo)benzenesulfonic acid], tetrasodium salt]
anticomplementary effect [2]: anticomplementary effect

Compound: NCCCCCC(=O)O [epsilon-aminocaproic acid]
treatment of hereditary angioneurotic edema [3]: used with success

Compound: NC[C@H]1CC[C@H](C(=O)O)CC1 [tranexamic acid]
treatment of hereditary angioneurotic edema [3]: used with success

Compound: heparin
anticomplementary effect [2]: anticomplementary effect

Compound: pentosan- polysulfoester
anticomplementary activity on human serum [4]: anticomplementary activity
